Columns and labels:
squalene synthase = experiment: Squalene synthase assay (cell lysate); format: biochemical; details: 4 nM to 0.2 mM
Description: Squalene Synthase Assay--The cell lysate was prepared immediately prior to running the assay. Cells were washed three times with PBS, once with a 0.1M potassium phosphate buffer (pH 7.4) containing 5 mM MgCl2 and 5 mM CHAPS, and once with a 0.01M potassium phosphate buffer (pH 7.4) containing 0.5 mM MgCl2 and 0.5 mM CHAPS. Cells were scraped with a rubber policeman in approximately 0.5 ml of the final wash buffer and dounce homogenized with 20 strokes, while on ice. An aliquot of cell lysate was examined with a light microscope to ensure that essentially all cells in the sample were lysed. An additional aliquot of cell lysate was saved for protein determination. […] The squalene was isolated by TLC and the radioactivity of the squalene bands was measured as previously described. […]
Since both farnesyl compounds have a structural similarity to farnesyl pyrophosphate, the substrate for squalene synthase, and some of the farnesyl compounds that have been tested function as a competitive inhibitor of squalene synthase, the effects of farnesyl acetate on in vitro squalene synthase activity was measured. As a positive control, squalene synthase activity was also measured in tile presence of zaragozic acid A, a potent competitive inhibitor of the enzyme. […]

HMG-CoA reductase = HMG-CoA reductase degradation rate (pulse-chase); format: cell-based; details: 10 μg/ml during chase; untreated 9.3 hours
Description: Measurement of HMGal and HMG-CoA Reductase Degradation Rates Cells grown in 60×15 mm dishes were washed once with ice-cold PBS and starved for 1 hour in 1 ml of methionine-free MEM supplemented with 5% LPS, 250 μg/ml of active geneticin, 10 μM compactin, and 0.1 mM mevalonate. These cells were radio-labeled for 2 hours in 300 μl of the methionine-free starvation medium containing 100 μCi of Tran^35 S-label (>1,000 Ci/mmol). Cells were incubated in an MEM-based chase medium containing 2 mM methionine, 5% LPS, 250 μg/ml of active geneticin, 10 μM compactin, and 0.1 mM mevalonate. During the chase period, some plates also had either 20 mM mevalonate, 10 μg/ml farnesyl acetate or 10 μg/ml ethyl farnesyl ether added to them as indicated in the figure legend. Following the chase, cells were washed, lysed and the HMGal and HMG-CoA reductase proteins were immunoprecipitated, subjected to SDS-PAGE and quantified.
In order to test whether the farnesyl compounds impact degradation, the rates of degradation for HMGal, HMG-CoA reductase, and total cellular protein were measured in the presence and absence of 10 μg/ml farnesyl acetate and ethyl farnesyl ether.

[1] = tested on: cholesterol biosynthetic pathway; experiment: TLC distribution of [3H]acetate-derived non-saponifiable lipids (site of metabolic block); format: cell-based; design: radioactivity in the cell-derived fraction co-migrating with lanosterol / radioactivity in the cell-derived fraction co-migrating with squalene / radioactivity in the cell-derived fraction co-migrating with cholesterol / remaining radioactivity in the cell-derived fraction scattered throughout the rest of the TLC lane: concentration or dose not given beside the values
Description: Lipid Saponification and Extraction Procedure Saponification and extraction of lipids from cell and media samples was performed as previously described in Bradfute, et al. (1992) J.B.C. 267:18308-18314.
Thin Layer Chromatography--TLC was performed using Analtech 250 μm silica gel G plates with a hexanes/diethyl ether (1:1) solvent system. Lipid standards were visualized by iodine staining. Bands were scraped from the plate and their radioactivity was measured.
Quantification of Radioactivity--Samples were suspended in 4 ml of scintillation fluid (Cytoscint from ICN). The radioactivity of the samples was measured using a Beckman LS-7500 scintillation counter.
To determine tile site of tile metabolic block caused by farnesyl acetate and ethyl farnesyl ether, the non-saponifiable lipids from cells grown in the presence of the farnesyl compounds were examined for the accumulation of intermediates in the cholesterol biosynthetic pathway. The cells were only labeled for 1 hour and only treated with the farnesyl compounds during the labeling period; so that any intermediates which accumulated would be as a result of the inhibitory effects of the farnesol compounds and not subsequent regulatory effects on HMG-CoA reductase. CHO-HMGal cells were incubated with [^3 H]acetate and either farnesyl acetate, ethyl farnesyl ether, or no additive. The non-saponifiable lipids were isolated from both the cell, and the medium and separated by TLC.

[2] = 1 hour labeling with [3H]acetate, compound only during labeling

`CC(=O)OCC=C(C)CCC=C(C)CCC=C(C)C` [farnesyl acetate] was tested, and the “effect on in vitro squalene synthase activity” value (squalene synthase) was “negligible effect”, the “half-life of HMG-CoA reductase” value (HMG-CoA reductase) was 3.6 h and the “reduction of the half-life of HMG-CoA reductase” value (HMG-CoA reductase) was 60%. The “radioactivity in the cell-derived fraction co-migrating with cholesterol” value [1, 2] was 4%, the “radioactivity in the cell-derived fraction co-migrating with lanosterol” value [1, 2] was 74% and the “radioactivity in the cell-derived fraction co-migrating with squalene” value [1, 2] was 9%. For the same molecule, the “remaining radioactivity in the cell-derived fraction scattered throughout the rest of the TLC lane” value [1, 2] was 13%, the “total non-saponifiable radioactivity found in the medium” value ([1]; untreated 6%) was 12% and the “total non-saponifiable radioactivity found in the cells” value ([1]; untreated 94%) was 88%. The “increase in media-derived material co-migrating with farnesol” value ([1]; versus untreated sample) was roughly 3 fold.

— US5475029A, “Farnesyl compounds as cholesterol lowering agents” (The Board of Trustees of the Leland Stanford Junior …, priority 1993, dated 1995)
